# PMC5218480 (PLoS ONE, 2017)
# Tested on: MV-4-11 cells
# Experiment: Gene expression microarray analysis (Affymetrix PrimeView) and GSEA
# Assay type: cell-based, human
# Parameters: RFU PODN (11730768_x_at) / Fold change /veh PODN (11730768_x_at) / RFU LINC00158 (11744669_a_at) / Fold change /veh LINC00158 (11744669_a_at) / RFU DUSP10 (11751237_a_at) / Fold change /veh DUSP10 (11751237_a_at) / RFU ID3 (11757404_x_at) / Fold change /veh ID3 (11757404_x_at) / RFU PLEKHG5 (11737974_s_at) / Fold change /veh PLEKHG5 (11737974_s_at) / RFU LRRC4B (11730491_at) / Fold change /veh LRRC4B (11730491_at) / RFU GIMAP4 (11747438_a_at) / Fold change /veh GIMAP4 (11747438_a_at) / RFU KRT8 (11758183_x_at) / Fold change /veh KRT8 (11758183_x_at) / RFU CNN1 (11734310_a_at) / Fold change /veh CNN1 (11734310_a_at) / RFU VPS37D (11726825_at) / Fold change /veh VPS37D (11726825_at) / RFU C10orf10 (11716522_x_at) / Fold change /veh C10orf10 (11716522_x_at) / RFU KIR2DL2 /// KIR2DL4 /// KIR2DL5A /// KIR2DL5B /// KIR2DS1 /// KIR2DS2 /// KIR2DS3 /// KIR2DS4 /// KIR3DL3 /// KIR3DL3 /// KIR3DS1 (11738374_at) / Fold change /veh KIR2DL2 /// KIR2DL4 /// KIR2DL5A /// KIR2DL5B /// KIR2DS1 /// KIR2DS2 /// KIR2DS3 /// KIR2DS4 /// KIR3DL3 /// KIR3DL3 /// KIR3DS1 (11738374_at) / RFU C1QL1 (11718748_at) / Fold change /veh C1QL1 (11718748_at) / RFU TMPRSS4 (11747572_a_at) / Fold change /veh TMPRSS4 (11747572_a_at) / RFU HAMP (11756126_x_at) / Fold change /veh HAMP (11756126_x_at) / RFU RNFT2 (11725882_a_at) / Fold change /veh RNFT2 (11725882_a_at) / RFU NR4A2 (11747474_a_at) / Fold change /veh NR4A2 (11747474_a_at) / RFU ABCC12 (11746883_a_at) / Fold change /veh ABCC12 (11746883_a_at) / RFU TMEM136 (11760407_x_at) / Fold change /veh TMEM136 (11760407_x_at) / RFU CLDN22 /// WWC2 (11732394_at) / Fold change /veh CLDN22 /// WWC2 (11732394_at) / RFU HLA-DPB1 (11760878_x_at) / Fold change /veh HLA-DPB1 (11760878_x_at) / RFU SPINT1 (11716480_a_at) / Fold change /veh SPINT1 (11716480_a_at) / RFU GAP43 (11754022_s_at) / Fold change /veh GAP43 (11754022_s_at) / RFU A4GNT (11735810_at) / Fold change /veh A4GNT (11735810_at) / RFU PRB3 (11715151_x_at) / Fold change /veh PRB3 (11715151_x_at) / RFU TUBB4B (11761932_at) / Fold change /veh TUBB4B (11761932_at) / RFU CAPN14 (11732068_a_at) / Fold change /veh CAPN14 (11732068_a_at) / RFU TMCC2 (11721928_a_at) / Fold change /veh TMCC2 (11721928_a_at) / RFU IRGQ (11745062_a_at) / Fold change /veh IRGQ (11745062_a_at) / RFU FAM174B (11720279_a_at) / Fold change /veh FAM174B (11720279_a_at) / RFU TMPRSS4 (11748680_a_at) / Fold change /veh TMPRSS4 (11748680_a_at) / RFU FAM212B (11763350_a_at) / Fold change /veh FAM212B (11763350_a_at) / RFU PLEKHG5 (11743358_a_at) / Fold change /veh PLEKHG5 (11743358_a_at) / RFU ZSCAN30 (11745921_a_at) / Fold change /veh ZSCAN30 (11745921_a_at) / RFU CMKLR1 (11741424_a_at) / Fold change /veh CMKLR1 (11741424_a_at) / RFU LOC101060620 /// MAPK8IP1 (11723275_at) / Fold change /veh LOC101060620 /// MAPK8IP1 (11723275_at) / RFU SPTSSB (11747773_x_at) / Fold change /veh SPTSSB (11747773_x_at) / RFU PRSS12 (11739890_at) / Fold change /veh PRSS12 (11739890_at) / RFU BIN1 (11741810_x_at) / Fold change /veh BIN1 (11741810_x_at) / RFU WNT11 (11732464_a_at) / Fold change /veh WNT11 (11732464_a_at) / RFU C10orf10 (11716521_a_at) / Fold change /veh C10orf10 (11716521_a_at) / RFU C5orf56 (11738089_at) / Fold change /veh C5orf56 (11738089_at) / RFU CYB561 (11721691_x_at) / Fold change /veh CYB561 (11721691_x_at) / RFU ANKRD19P (11752326_a_at) / Fold change /veh ANKRD19P (11752326_a_at) / RFU OR2T12 /// OR2T33 /// OR2T8 (11738714_s_at) / Fold change /veh OR2T12 /// OR2T33 /// OR2T8 (11738714_s_at) / RFU VCAN (11748164_a_at) / Fold change /veh VCAN (11748164_a_at) / RFU JSRP1 (11732532_at) / Fold change /veh JSRP1 (11732532_at) / RFU KRTAP10-11 (11738290_x_at) / Fold change /veh KRTAP10-11 (11738290_x_at) / RFU MYO3A (11730013_a_at) / Fold change /veh MYO3A (11730013_a_at) / RFU EBF3 (11725865_a_at) / Fold change /veh EBF3 (11725865_a_at) / RFU CAMK2N1 (11719241_x_at) / Fold change /veh CAMK2N1 (11719241_x_at) / RFU C5orf56 (11738088_a_at) / Fold change /veh C5orf56 (11738088_a_at) / RFU OLFML3 (11715873_a_at) / Fold change /veh OLFML3 (11715873_a_at) / RFU LOC100653217 /// NTM (11731650_a_at) / Fold change /veh LOC100653217 /// NTM (11731650_a_at) / RFU MAPK11 (11762145_a_at) / Fold change /veh MAPK11 (11762145_a_at) / RFU FIZ1 (11724087_x_at) / Fold change /veh FIZ1 (11724087_x_at) / RFU OASL (11726364_x_at) / Fold change /veh OASL (11726364_x_at) / RFU SOX15 (11748057_x_at) / Fold change /veh SOX15 (11748057_x_at) / RFU CD79A (11719716_a_at) / Fold change /veh CD79A (11719716_a_at) / RFU HIST1H1D (11736915_at) / Fold change /veh HIST1H1D (11736915_at) / RFU CASKIN2 (11723855_a_at) / Fold change /veh CASKIN2 (11723855_a_at) / RFU LOC730098 (11760151_x_at) / Fold change /veh LOC730098 (11760151_x_at) / RFU OR4N2 (11742367_at) / Fold change /veh OR4N2 (11742367_at) / RFU PRRT2 (11749266_a_at) / Fold change /veh PRRT2 (11749266_a_at) / RFU SNX32 (11753110_a_at) / Fold change /veh SNX32 (11753110_a_at) / RFU CDHR5 (11726645_a_at) / Fold change /veh CDHR5 (11726645_a_at) / RFU RCAN1 (11760418_a_at) / Fold change /veh RCAN1 (11760418_a_at) / RFU FAM167A (11723789_a_at) / Fold change /veh FAM167A (11723789_a_at) / RFU FAM26E (11764081_at) / Fold change /veh FAM26E (11764081_at) / RFU ISYNA1 (11749810_s_at) / Fold change /veh ISYNA1 (11749810_s_at) / RFU ACY1 (11761880_at) / Fold change /veh ACY1 (11761880_at) / RFU 11764098_at / Fold change /veh 11764098_at / RFU SAMD14 (11745864_x_at) / Fold change /veh SAMD14 (11745864_x_at) / RFU NPB (11741838_a_at) / Fold change /veh NPB (11741838_a_at) / RFU TMPRSS6 (11731388_a_at) / Fold change /veh TMPRSS6 (11731388_a_at) / RFU KRTAP10-2 (11738614_at) / Fold change /veh KRTAP10-2 (11738614_at) / RFU ARHGAP8 /// PRR5-ARHGAP8 (11727945_x_at) / Fold change /veh ARHGAP8 /// PRR5-ARHGAP8 (11727945_x_at) / RFU KRTAP5-7 /// NADSYN1 (11734609_at) / Fold change /veh KRTAP5-7 /// NADSYN1 (11734609_at) / RFU RASL12 (11751679_a_at) / Fold change /veh RASL12 (11751679_a_at) / RFU CDKN2B (11736163_a_at) / Fold change /veh CDKN2B (11736163_a_at) / RFU PRF1 (11729649_at) / Fold change /veh PRF1 (11729649_at) / RFU, ZNF638 /// ZNF638-IT1 / Fold change vs veh, ZNF638 /// ZNF638-IT1 / RFU, PANK3 / Fold change vs veh, PANK3 / RFU, SH3YL1 / Fold change vs veh, SH3YL1 / RFU, ZEB2 / Fold change vs veh, ZEB2 / RFU, NRIP1 / Fold change vs veh, NRIP1 / RFU, PTTG1IP / Fold change vs veh, PTTG1IP / RFU, CAPN2 / Fold change vs veh, CAPN2 / RFU, MED14 / Fold change vs veh, MED14 / RFU, SNORA58 / Fold change vs veh, SNORA58 / RFU, C1orf63 / Fold change vs veh, C1orf63 / RFU, LRRFIP1 / Fold change vs veh, LRRFIP1 / RFU, NDUFAF7 / Fold change vs veh, NDUFAF7 / RFU, SLC12A2 / Fold change vs veh, SLC12A2 / RFU, IBTK / Fold change vs veh, IBTK / RFU, ESF1 / Fold change vs veh, ESF1 / Fold change vs veh, TMEM50B / RFU, TAOK1 / Fold change vs veh, TAOK1 / RFU, ACBD3 / Fold change vs veh, ACBD3 / RFU, TMA16 / Fold change vs veh, TMA16 / RFU, RWDD3 / Fold change vs veh, RWDD3 / RFU, BCAT1 / Fold change vs veh, BCAT1 / RFU, EDEM3 / Fold change vs veh, EDEM3 / RFU, TMEM33 / Fold change vs veh, TMEM33 / RFU, WDR75 / Fold change vs veh, WDR75 / RFU, AHCTF1 / Fold change vs veh, AHCTF1 / RFU, TFRC / Fold change vs veh, TFRC / RFU, ZDHHC17 / Fold change vs veh, ZDHHC17 / RFU, NOM1 / Fold change vs veh, NOM1 / RFU, ARL8B / Fold change vs veh, ARL8B / RFU, ZBTB11 / Fold change vs veh, ZBTB11 / RFU, TAMM41 / Fold change vs veh, TAMM41 / RFU, KIAA1704 /// LOC100996395 / Fold change vs veh, KIAA1704 /// LOC100996395 / RFU, ING1 / Fold change vs veh, ING1 / RFU, TRMT61B / Fold change vs veh, TRMT61B / RFU, FUBP3 / Fold change vs veh, FUBP3 / RFU, TP53 / Fold change vs veh, TP53 / RFU, TNKS2 / Fold change vs veh, TNKS2 / RFU, ZFP14 / Fold change vs veh, ZFP14 / RFU, ACTR2 / Fold change vs veh, ACTR2 / RFU, PPP3R1 / Fold change vs veh, PPP3R1 / RFU, PIK3R1 / Fold change vs veh, PIK3R1 / RFU, HNRNPA1 / Fold change vs veh, HNRNPA1 / RFU, RNF170 / Fold change vs veh, RNF170 / RFU, ZNF28 / Fold change vs veh, ZNF28 / RFU, RNGTT / Fold change vs veh, RNGTT / RFU, OGT / Fold change vs veh, OGT / RFU, BRD1 / Fold change vs veh, BRD1 / RFU, MARS / Fold change vs veh, MARS / RFU, ZNF655 / Fold change vs veh, ZNF655 / RFU, FAHD1 / Fold change vs veh, FAHD1 / RFU, BDP1 / Fold change vs veh, BDP1 / RFU, LRRCC1 / Fold change vs veh, LRRCC1 / RFU, ARID1A / Fold change vs veh, ARID1A / RFU, ZNF146 / Fold change vs veh, ZNF146 / RFU, ZNF330 / Fold change vs veh, ZNF330 / RFU, GPN3 / Fold change vs veh, GPN3 / RFU, C9orf123 / Fold change vs veh, C9orf123 / RFU, N4BP2L2 / Fold change vs veh, N4BP2L2 / RFU, ARFIP1 / Fold change vs veh, ARFIP1 / RFU, FAM179B / Fold change vs veh, FAM179B / RFU, BCL10 / Fold change vs veh, BCL10 / RFU, UHRF1BP1L / Fold change vs veh, UHRF1BP1L / RFU, BET1 / Fold change vs veh, BET1 / RFU, CNOT2 / Fold change vs veh, CNOT2 / RFU, ZNF268 / Fold change vs veh, ZNF268 / Fold change vs veh, ZNF507 / RFU, DGCR2 / Fold change vs veh, DGCR2 / RFU, WDSUB1 / Fold change vs veh, WDSUB1 / Fold change vs veh, HSP90B1 /// MIR3652 / RFU, ADSS / Fold change vs veh, ADSS / RFU, GK / Fold change vs veh, GK / RFU, ZNF148 / Fold change vs veh, ZNF148 / RFU, TAF9 / Fold change vs veh, TAF9 / RFU, SLC1A5 / Fold change vs veh, SLC1A5 / RFU, SLMO2 / Fold change vs veh, SLMO2 / RFU, ABCC4 / Fold change vs veh, ABCC4 / RFU, LOC101060439 /// RAP1B / Fold change vs veh, LOC101060439 /// RAP1B / RFU, RFX7 / Fold change vs veh, RFX7 / RFU, GTPBP10 / Fold change vs veh, GTPBP10 / RFU, CNEP1R1 / Fold change vs veh, CNEP1R1 / RFU, BIVM-ERCC5 /// ERCC5 / Fold change vs veh, BIVM-ERCC5 /// ERCC5 / RFU, ILF3 / Fold change vs veh, ILF3 / RFU 11762660_at / Fold change /veh 11762660_at / RFU VCAN (11757783_s_at) / Fold change /veh VCAN (11757783_s_at) / RFU DDX43 (11728927_at) / Fold change /veh DDX43 (11728927_at) / RFU KRT8 (11758188_x_at) / Fold change /veh KRT8 (11758188_x_at) / RFU NKD1 (11759106_at) / Fold change /veh NKD1 (11759106_at) / RFU SRD5A1 (11742802_a_at) / Fold change /veh SRD5A1 (11742802_a_at) / RFU TPSAB1 /// TPSB2 (11721975_s_at) / Fold change /veh TPSAB1 /// TPSB2 (11721975_s_at) / RFU GSTM3 (11746129_a_at) / Fold change /veh GSTM3 (11746129_a_at) / RFU IL23R (11737362_x_at) / Fold change /veh IL23R (11737362_x_at) / RFU TMEM51 (11727254_a_at) / Fold change /veh TMEM51 (11727254_a_at) / RFU PIWIL2 (11732686_x_at) / Fold change /veh PIWIL2 (11732686_x_at) / RFU ORM1 (11744905_x_at) / Fold change /veh ORM1 (11744905_x_at) / RFU CCDC152 (11743942_at) / Fold change /veh CCDC152 (11743942_at) / RFU ECM1 (11717891_a_at) / Fold change /veh ECM1 (11717891_a_at) / RFU IL23R (11748794_a_at) / Fold change /veh IL23R (11748794_a_at) / RFU TNFAIP8L3 (11732012_x_at) / Fold change /veh TNFAIP8L3 (11732012_x_at) / RFU MBOAT4 (11741988_at) / Fold change /veh MBOAT4 (11741988_at) / RFU 11764193_at / Fold change /veh 11764193_at / RFU TMEM53 (11763286_at) / Fold change /veh TMEM53 (11763286_at) / RFU MAGEB2 (11727129_at) / Fold change /veh MAGEB2 (11727129_at) / RFU TMEM200A (11744735_a_at) / Fold change /veh TMEM200A (11744735_a_at) / RFU CCDC152 (11751479_a_at) / Fold change /veh CCDC152 (11751479_a_at) / RFU FAM211A (11726209_a_at) / Fold change /veh FAM211A (11726209_a_at) / RFU RGS16 (11746705_a_at) / Fold change /veh RGS16 (11746705_a_at) / RFU VCAN (11755009_s_at) / Fold change /veh VCAN (11755009_s_at) / RFU RHOB (11743442_s_at) / Fold change /veh RHOB (11743442_s_at) / RFU RGS16 (11720943_a_at) / Fold change /veh RGS16 (11720943_a_at) / RFU RGS16 (11720944_at) / Fold change /veh RGS16 (11720944_at) / RFU, VPS4B / Fold change vs veh, VPS4B / RFU, CREB1 / Fold change vs veh, CREB1 / RFU, DNAJC13 / Fold change vs veh, DNAJC13 / RFU, GNAQ / Fold change vs veh, GNAQ / RFU, CDK5R1 / Fold change vs veh, CDK5R1 / RFU, ZRANB3 / Fold change vs veh, ZRANB3 / RFU, CUL4A / Fold change vs veh, CUL4A / RFU, CCNY / Fold change vs veh, CCNY / RFU, UFL1 / Fold change vs veh, UFL1 / RFU, COG3 / Fold change vs veh, COG3 / RFU, DIAPH2 / Fold change vs veh, DIAPH2 / RFU, SKA2 / Fold change vs veh, SKA2 / RFU, AFF3 / Fold change vs veh, AFF3 / RFU, LMF1 / Fold change vs veh, LMF1 / RFU, IPO11 / Fold change vs veh, IPO11 / RFU, DFFB / Fold change vs veh, DFFB / RFU, FOXP1 / Fold change vs veh, FOXP1 / RFU, CARD8 / Fold change vs veh, CARD8 / RFU, STRN3 / Fold change vs veh, STRN3 / RFU, ADK / Fold change vs veh, ADK / RFU, RASSF2 / Fold change vs veh, RASSF2 / RFU, WIPF1 / Fold change vs veh, WIPF1 / RFU, LARP1B / Fold change vs veh, LARP1B / RFU, RASA1 / Fold change vs veh, RASA1 / RFU, RB1 / Fold change vs veh, RB1 / RFU, PPFIA1 / Fold change vs veh, PPFIA1 / RFU, MAT2A / Fold change vs veh, MAT2A / RFU, CCT5 / Fold change vs veh, CCT5 / RFU, WDR92 / Fold change vs veh, WDR92 / RFU, CUX1 / Fold change vs veh, CUX1 / RFU, TTC7A / Fold change vs veh, TTC7A / RFU, TMEM135 / Fold change vs veh, TMEM135 / RFU, DEPTOR / Fold change vs veh, DEPTOR / RFU, CPM / Fold change vs veh, CPM / RFU, DNAJB6 / Fold change vs veh, DNAJB6 / RFU, CACNA2D3 / Fold change vs veh, CACNA2D3 / RFU, DTX4 / Fold change vs veh, DTX4 / RFU, TFCP2 / Fold change vs veh, TFCP2 / RFU, GMCL1 /// GMCL1P1 / Fold change vs veh, GMCL1 /// GMCL1P1 / RFU, AEBP2 / Fold change vs veh, AEBP2 / RFU, SNHG1 /// SNORD22 /// SNORD25 /// SNORD26 /// SNORD27 /// SNORD28 /// SNORD29 /// SNORD31 / Fold change vs veh, SNHG1 /// SNORD22 /// SNORD25 /// SNORD26 /// SNORD27 /// SNORD28 /// SNORD29 /// SNORD31 / Fold change (Aza/veh), C12orf56 (ProbeSet 11735607_a_at) / Fold change (ACY-1035/veh), C12orf56 (ProbeSet 11735607_a_at) / Fold change (Aza/veh), FGFR1OP (ProbeSet 11751329_s_at) / Fold change (ACY-1035/veh), FGFR1OP (ProbeSet 11751329_s_at) / Fold change (Aza/veh), VPS36 (ProbeSet 11739960_a_at) / Fold change (ACY-1035/veh), VPS36 (ProbeSet 11739960_a_at) / RFU SYPL1 (11715823_x_at) / Fold change /veh SYPL1 (11715823_x_at) / RFU IGFBP7 (11715501_s_at) / Fold change /veh IGFBP7 (11715501_s_at) / RFU REEP3 (11722064_at) / Fold change /veh REEP3 (11722064_at) / RFU IGLL1 (11728026_x_at) / Fold change /veh IGLL1 (11728026_x_at): dose or concentration left out as unconfirmed
# Details: MV-4-11 cells, 48 hours
structure (smiles),measurement,value
Nc1ccc(-c2cccs2)cc1NC(=O)c1ccc2c(c1)cc(C1CC1)n2CCN1CCOCC1 [ACY-1035],Fold change /veh FAM26E (11764081_at),0.88
